Active and inactive are the calls of the source. No cut-off for these calls is given here.
What was measured:
U-87 MG [1] = assay: Antiproliferative activity against human U87 cells assessed as reduction in cell viability after 14 hrs by CCK8 assay; format: functional, cell-based, U-87MG ATCC
[2] = Antiproliferative activity against human H6PX cells assessed as reduction in cell viability after 14 hrs by CCK8 assay; format: functional, cell-based
[3] = Antiproliferative activity against human H7PX cells assessed as reduction in cell viability after 14 hrs by CCK8 assay; format: functional, cell-based
U-87 MG [4] = assay: Anticlonogenic activity against human U87 cells assessed as ratio of the number of colonies to the number of cells seeded at IC20 incubated for 14 days followed by replating and measured after 2 weeks by crystal violet staining based microscopic analysis (reference value: 100%); format: functional, U-87MG ATCC
[5] = Anticlonogenic activity against human H6PX cells assessed as ratio of the number of colonies to the number of cells seeded at IC20 incubated for 14 days followed by replating and measured after 2 weeks by crystal violet staining based microscopic analysis (reference value: 100%); format: functional
[6] = Anticlonogenic activity against human H7PX cells assessed as ratio of the number of colonies to the number of cells seeded at IC20 incubated for 14 days followed by replating and measured after 2 weeks by crystal violet staining based microscopic analysis (reference value: 100%); format: functional
U-87 MG [7] = assay: Induction of apoptosis in human U87 cells assessed as viable cells at IC20 after 4 hrs by AnnexinV-FITC/PI staining based flow cytometry analysis (reference value: 93.1%); format: functional, U-87MG ATCC
U-87 MG [8] = assay: Induction of apoptosis in human U87 cells assessed as apoptotic cells at IC20 after 4 hrs by AnnexinV-FITC/PI staining based flow cytometry analysis (reference value: 6.9%); format: functional, U-87MG ATCC
[9] = Induction of apoptosis in human H6PX cells assessed as viable cells at IC20 after 4 hrs by AnnexinV-FITC/PI staining based flow cytometry analysis (reference value: 90.3%); format: functional
[10] = Induction of apoptosis in human H6PX cells assessed as apoptotic cells at IC20 after 4 hrs by AnnexinV-FITC/PI staining based flow cytometry analysis (reference value: 9.7%); format: functional
[11] = Induction of apoptosis in human H7PX cells assessed as viable cells at IC20 after 4 hrs by AnnexinV-FITC/PI staining based flow cytometry analysis (reference value: 90.4%); format: functional
[12] = Induction of apoptosis in human H7PX cells assessed as apoptotic cells at IC20 after 4 hrs by AnnexinV-FITC/PI staining based flow cytometry analysis (reference value: 9.6%); format: functional
U-87 MG [13] = assay: Induction of apoptosis in human U87 cells assessed as reduction in bcl2 gene expression at IC20 after 4 hrs by RT-PCR analysis relative to untreated control; format: functional, U-87MG ATCC
U-87 MG [14] = assay: Induction of apoptosis in human U87 cells assessed as increase in FASLG gene expression at IC20 after 4 hrs by RT-PCR analysis relative to untreated control; format: functional, U-87MG ATCC
[15] = Induction of apoptosis in human H6PX cells assessed as reduction in bcl2 gene expression at IC20 after 4 hrs by RT-PCR analysis relative to untreated control; format: functional
[16] = Induction of apoptosis in human H6PX cells assessed as increase in FASLG gene expression at IC20 after 4 hrs by RT-PCR analysis relative to untreated control; format: functional
[17] = Induction of apoptosis in human H7PX cells assessed as reduction in bcl2 gene expression at IC20 after 4 hrs by RT-PCR analysis relative to untreated control; format: functional
[18] = Induction of apoptosis in human H7PX cells assessed as increase in FASLG gene expression at IC20 after 4 hrs by RT-PCR analysis relative to untreated control; format: functional
U-87MG ATCC [19] = assay: Inhibition of TrxR in human U87 cells at IC20 incubated for 1 hr and measured up to 4 hrs by DNTB-reagent based colorimetric assay; format: cell-based
Homo sapiens [20] = species: Homo sapiens; assay: Inhibition of TrxR in human H6PX cells at IC20 incubated for 1 hr and measured up to 4 hrs by DNTB-reagent based colorimetric assay; format: cell-based
Homo sapiens [21] = species: Homo sapiens; assay: Inhibition of TrxR in human H7PX cells at IC20 incubated for 1 hr and measured up to 4 hrs by DNTB-reagent based colorimetric assay; format: cell-based
U-87MG ATCC [22] = assay: Inhibition of TrxR in human U87 cells at IC20 incubated for 1 hr and measured after 4 hrs by TRFS-GREEN dye based fluorescence microscopic analysis; format: cell-based
Homo sapiens [23] = species: Homo sapiens; assay: Inhibition of TrxR in human H6PX cells at IC20 incubated for 1 hr and measured after 4 hrs by TRFS-GREEN dye based fluorescence microscopic analysis; format: cell-based
Homo sapiens [24] = species: Homo sapiens; assay: Inhibition of TrxR in human H7PX cells at IC20 incubated for 1 hr and measured after 4 hrs by TRFS-GREEN dye based fluorescence microscopic analysis; format: cell-based
U-87 MG [25] = assay: Induction of ROS generation in human U87 cells at IC20 incubated for 1 hr by CM-H2DCFDA staining based microplate reader analysis; format: functional, cell-based; conditions: U-87MG ATCC
U-87MG ATCC [26] = assay: Inhibition of TrxR in human U87 cells assessed as reduction in intracellular thiol levels at IC20 after 1 hr by DNTB reagent based assay relative to control; format: cell-based; set-up: scale not given: the % may be the effect or the level left
Homo sapiens [27] = species: Homo sapiens; assay: Inhibition of TrxR in human H6PX cells assessed as reduction in intracellular thiol levels at IC20 after 1 hr by DNTB reagent based assay relative to control; format: cell-based; set-up: scale not given: the % may be the effect or the level left
Homo sapiens [28] = species: Homo sapiens; assay: Inhibition of TrxR in human […] cells assessed as reduction in intracellular thiol levels at IC20 after 1 hr by DNTB reagent based assay relative to control; format: cell-based; set-up: scale not given: the % may be the effect or the level left
U-87 MG [29] = assay: Inhibition of protein synthesis in human U87 cells at IC20 for 14 hrs in presence of labeled methionine by fluorescence microscopic analysis; format: functional, cell-based; conditions: U-87MG ATCC
Homo sapiens [30] = species: Homo sapiens; assay: Inhibition of protein synthesis in human H6PX cells at IC20 for 14 hrs in presence of labeled methionine by fluorescence microscopic analysis; format: functional, cell-based
Homo sapiens [31] = species: Homo sapiens; assay: Inhibition of protein synthesis in human H7PX cells at IC20 for 14 hrs in presence of labeled methionine by fluorescence microscopic analysis; format: functional, cell-based
U-87 MG [32] = assay: Induction of endoplasmic reticulum stress in human U87 cells assessed as GRP78 expression at IC20 after 1 hr by ELISA relative to control; format: functional, U-87MG ATCC
U-87 MG [33] = assay: Induction of endoplasmic reticulum stress in human U87 cells assessed as PDIA4 expression at IC20 after 1 hr by ELISA relative to control; format: functional, U-87MG ATCC
U-87 MG [34] = assay: Induction of endoplasmic reticulum stress in human U87 cells assessed as EDEM expression at IC20 after 1 hr by ELISA relative to control; format: functional, U-87MG ATCC
U-87 MG [35] = assay: Induction of endoplasmic reticulum stress in human U87 cells assessed as DDIT3 expression at IC20 after 1 hr by ELISA relative to control; format: functional, U-87MG ATCC
U-87 MG [36] = assay: Induction of endoplasmic reticulum stress in human U87 cells assessed as DNAJC3 expression at IC20 after 1 hr by ELISA relative to control; format: functional, U-87MG ATCC
U-87 MG [37] = assay: Induction of endoplasmic reticulum stress in human U87 cells assessed as GRP78 expression at IC20 after 2 hrs by ELISA relative to control; format: functional, U-87MG ATCC
U-87 MG [38] = assay: Induction of endoplasmic reticulum stress in human U87 cells assessed as PDIA4 expression at IC20 after 2 hrs by ELISA relative to control; format: functional, U-87MG ATCC
U-87 MG [39] = assay: Induction of endoplasmic reticulum stress in human U87 cells assessed as EDEM expression at IC20 after 2 hrs by ELISA relative to control; format: functional, U-87MG ATCC
U-87 MG [40] = assay: Induction of endoplasmic reticulum stress in human U87 cells assessed as DDIT3 expression at IC20 after 2 hrs by ELISA relative to control; format: functional, U-87MG ATCC
U-87 MG [41] = assay: Induction of endoplasmic reticulum stress in human U87 cells assessed as DNAJC3 expression at IC20 after 2 hrs by ELISA relative to control; format: functional, U-87MG ATCC
[42] = Drug uptake in human U87 cells after 2 hrs by microbeta liquid scintillation counting analysis; format: ADME, cell-based; conditions: u-87mg atcc
[43] = Drug accumulation in human U87 cells after 2 hrs by microbeta liquid scintillation counting analysis; format: ADME, cell-based; conditions: u-87mg atcc

SMILES: O=C(O)c1ccccc1S[C@@H]1CC(=O)[C@@H]2OC[C@H]1O2
- IC20 (U-87 MG [1]): 784 µM
- IC50 (U-87 MG [1]): 922 µM
- IC20 [2]: 922 µM
- IC50 [2]: 955 µM
- IC20 [3]: 654 µM
- IC50 [3]: 736 µM
- Activity (U-87 MG [4]): 86%
- Activity [5]: 75%
- Activity [6]: 98%

SMILES: CC(=O)OC[C@H]1O[C@@H](S[C@@H]2CC(=O)[C@@H]3OC[C@H]2O3)[C@H](OC(C)=O)[C@@H](OC(C)=O)[C@@H]1OC(C)=O
- IC20 (U-87 MG [1]): 51.4 µM
- IC50 (U-87 MG [1]): 65.2 µM
- IC20 [2]: 113 µM
- IC50 [2]: 133 µM
- IC20 [3]: 134 µM
- IC50 [3]: 158 µM
- Activity (U-87 MG [4]): 40%
- Activity [5]: 46%
- Activity [6]: 63%
- Activity (U-87 MG [7]): 37.8%
- Activity (U-87 MG [8]): 62.2%
- Activity [9]: 19.6%
- Activity [10]: 80.4%
- Activity [11]: 56.7%
- Activity [12]: 43.3%
- fold change (FC) (U-87 MG [13]): -0.35
- fold change (FC) (U-87 MG [14]): 3.25
- fold change (FC) [15]: -0.4
- fold change (FC) [16]: 4.46
- fold change (FC) [17]: -0.69
- fold change (FC) [18]: 6.12
- inhibition (U-87MG ATCC [19]): Active
- inhibition (Homo sapiens [20]): Active
- inhibition (Homo sapiens [21]): Active
- inhibition (U-87MG ATCC [22]): Active
- inhibition (Homo sapiens [23]): Active
- inhibition (Homo sapiens [24]): Active
- Activity (U-87 MG [25]): Active
- Activity (U-87MG ATCC [26]): 11.8%
- Activity (Homo sapiens [27]): 22.3%
- Activity (Homo sapiens [28]): 19.7%
- inhibition (U-87 MG [29]): Active
- inhibition (Homo sapiens [30]): Active
- inhibition (Homo sapiens [31]): Active
- fold change (FC) (U-87 MG [32]): 1.81
- fold change (FC) (U-87 MG [33]): 1.9
- fold change (FC) (U-87 MG [34]): 2.39
- fold change (FC) (U-87 MG [35]): 7.01
- fold change (FC) (U-87 MG [36]): 1.07
- fold change (FC) (U-87 MG [37]): 1.38
- fold change (FC) (U-87 MG [38]): 1.24
- fold change (FC) (U-87 MG [39]): 1.1
- fold change (FC) (U-87 MG [40]): 0.11
- fold change (FC) (U-87 MG [41]): 2.43
- Drug uptake [42]: Active
- Drug uptake [43]: Not Active

From ChEMBL document CHEMBL4610033, “(1-4)-Thiodisaccharides as anticancer agents. Part 5. Evaluation of anticancer activity and investigation of mechanism of action” (Bioorg Med Chem Lett, 2020)
